Measurements taken from ChEMBL document CHEMBL3132798, “Ketorolac beats ketoprofen: lower photodecarboxylation, photohemolysis and phototoxicity” (Medchemcomm, 2013).

Experiments:
[1] = Photohemolytic activity against human erythrocytes after 15 mins in presence of 81197.4 mW/m2 of UVA light; format: ADME, cell-based; conditions: erythrocyte, 0.25 h
[2] = Phototoxicity against human skin fibroblasts at 1 to 100 uM measured after 14 hrs incubation and 24 hrs after initial 14 hrs incubation by MTS assay; conditions: skin fibroblast
[3] = Photohemolytic activity against human erythrocytes at 60 uM after 15 mins in presence of 81197.4 mW/m2 of UVA light; format: ADME, cell-based, Erythrocyte

| Structure (SMILES) | Activity [1] | Activity [2] | hemolysis at 0.25 h, 60 µM ([3]; erythrocytes, read-out: Activity) | Activity ([3]; erythrocyte, 0.25 h, 60 µM) |
| --- | --- | --- | --- | --- |
| CCc1cccc(C(=O)c2ccccc2)c1 | Dose-dependent effect | Non-toxic | – | – |
| O=C(c1ccccc1)c1ccc2n1CCC2C(=O)O (configuration not stated) [KETOROLAC] | – | Non-toxic | 20% | – |
| CC(C(=O)O)c1cccc(C(=O)c2ccccc2)c1 (configuration not stated) [KETOPROFEN] | – | Non-toxic | – | – |
| O=C(c1ccccc1)c1ccc2n1CCC2 | – | Non-toxic | – | Non-toxic |
